Data published in publication PMC10424179, “Disrupting Kaposi’s Sarcoma-Associated Herpesvirus (KSHV) Latent Replication with a Small Molecule Inhibitor” (Journal of Medicinal Chemistry, 2023).

How the values were obtained:
[1] = Caco-2 cell permeability; format: in vitro ADME; settings: human, pH 7.4, Caco-2 monolayer, apical to basolateral
Procedure: (§1) The next step was an in vitro ADMET profiling of the best seven compounds so far: 9, 11, 14, 19, 20, 21, and 27. The compounds were tested for their kinetic solubility (1% DMSO in PBS, pH 7.4), lipophilicity (chromatographic Log D7.4 value), cellular permeability (using Caco-2 cells), and metabolic stability (using mouse and human liver S9 fractions) (see Table 3).
MTT Assay: Viability of HEK293 cells ~48 hours after treatment […]
Fig S4: MTT assay for compounds 11, 14, 19, 20 and 21 using HEK293 cells. Values are means of […]
Permeability of the compounds was assessed using Caco2 monolayers grown on Transwell® (3460 Costar, Corning). In brief, cells were seeded 60.000 cells/well in 12-well Transwell plates in DMEM medium supplemented with 10% FCS and 1% NEAA. Cells were grown for 7 to 9 days with medium replacement every other day until they reached a tight monolayer. Tightness was defined as transepithelial resistance (TEER) values >300 Ω/cm² (measured using an EVOM Volt-Ohmmeter, World Precision Instruments). At the day of permeability as say, the compound stock solutions in DMSO were diluted to 10µM in Krebs -Ringer-buffer (KRB, pH 7.4). Cells treated with KRB only served as control. Monolayer was washed two times with prewarmed KRB and incubated with 500 µl sample on the apical compartment. Samples from the basolateral side were drawn at t = 0, 15, 30, 60, 120, 180 and 300 min and replaced with fresh buffer. The plates were incubated for 5 h in a cell culture incubator with lateral shaking (200 rpm). TEER values were measured again at the end of the permeability test. Compound concentration was determined with HPLC-ESI-MS/MS in SRM mode and calculated for the cumulative transport. Values are means of three replicates.

[2] = Kinetic solubility; format: physicochemical; settings: PBS with 1% DMSO; 1% DMSO in PBS, pH 7.4
Procedure: as §1
The desired compounds were sequentially diluted in DMSO in a 96-well plate. 1.5 µL of each well were transferred into another 96-well plate and mixed with 148.5 µL of PBS. Plates were shaken for 5 min at 600 rpm at room temperature (r.t.), and the absorbance at 620 nm was measured. Absorbance values were normalized by blank subtraction and plotted using GraphPad Prism 8.4.2 (GraphPad Software, San Diego, CA, USA). Solubility (S) was determined based on the First X value of AUC function using a threshold of 0.005. […]

[3] = Chromatographic LogD7.4; format: physicochemical; settings: reversed-phase HPLC, NUCLEODUR C18 Pyramid column; pH 7.4, HPLC-MS based; read-out: Chrom. LogD7.4
Procedure: as §1, with “3). […]” for “3).”
LogD7.4 was analyzed using an HPLC−MS based method. The retention time of 12 compounds with known LogD7.4 was determined and plotted toward their LogD7.4. Linear regression was used to determine the LogD7.4 of unknown compounds. Analysis was performed using a Dionex Ultimate 3000 HPLC system coupled to a TSQ Quantum Access MAX (Thermo Fisher, Dreieich, Germany) with the following conditions: EC150/2 NUCLEODUR C18 Pyramid column, 5 μM (Macherey Nagel, Düren, Germany); eluent A: 50 mM NH4OAc pH 7.4, eluent B: acetonitrile, and flow: 0.6 mL/min. The gradient was set to 0−100% B from 0 to 2.5 min, […]
are means of two replicates. […]

[4] = Metabolic stability in human liver S9 fraction; format: in vitro ADME; settings: human liver S9, 1 μM compound
Procedure: as §1, with “3). […]” for “3).”
(§2) 1.7 Metabolic Stability in Liver S9 Fractions
(§3) For the evaluation of combined phase I and phase II metabolic stability, the compound (1 μM) was incubated with 1 mg/mL pooled mouse liver S9 fraction (Xenotech, Kansas City, USA) or human liver S9 fraction (Corning, USA), 2 mM NADPH, 1 mM UDPGA, 10 mM MgCl 2, 5 mM GSH and 0.1 mM PAPS at 37 °C for 240 min. The metabolic stability of testosterone, verapamil and ketoconazole were determined in parallel to confirm the enzymatic activity of mouse S9 fractions, for human S9 testosterone, diclofenac and propranolol were used. The incubation was stopped after defined time points by precipitation of aliquots of S9 enzymes with 2 volumes of cold acetonitrile containing internal standard (150 nM diphenhydramine). Samples were stored on ice until the end of the incubation and precipitated protein was removed by centrifugation (15 min, 4 °C, 4,000 g). Concentration of the remaining test compound at the different time points was analyzed by HPLC-MS/MS (TSQ Quantum Access MAX, Thermo Fisher, Dreieich, Germany) and used to determine half -life (t1/2). Values are means of three

[5] = Metabolic stability in mouse liver S9 fraction; format: in vitro ADME; settings: pooled liver S9 fraction, mouse liver S9, 1 μM compound
Procedure: as §1, with “3). […]” for “3).”
as §2, §3

[6] = biological target: T1, oligomerization-deficient mutant of a LANA C-terminal protein fragment (aa 1008–1146) (Human herpesvirus 8 (Kaposi's sarcoma-associated herpesvirus), UniProt Q76SB0); assay: Microscale thermophoresis (MST) binding assay; design: species or system Kaposi's sarcoma-associated herpesvirus (KSHV); settings: read-out: KD value (MST); LANA aa 1008–1146 mutant; means of at least three replicates
T1 sequence (Q76SB0 1008-1146): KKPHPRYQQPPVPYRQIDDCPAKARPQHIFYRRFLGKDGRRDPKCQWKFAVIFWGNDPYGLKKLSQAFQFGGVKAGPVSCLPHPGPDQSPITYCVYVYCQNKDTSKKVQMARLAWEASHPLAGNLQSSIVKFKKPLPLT
Excerpt: (§4) In these assays, an oligomerization-deficient mutant of a LANA C-terminal protein fragment (aa 1008–1146) and an oligonucleotide representing LANA-binding site (LBS) 1 were used, which are convenient to use and handle for the described biophysical methods, while maintaining the essential DNA-binding interface.[25]
Equation y = A2 + (A1-A2)/(1 + (x/x0)^p)
1.3 Microscale Thermophoresis (MST) Assay
Microscale Thermophoresis Assay was done as mentioned in a previous publication. 2

[7] = biological target: LANA–DNA interaction (oligomerization-deficient LANA DBD aa 1008–1146 mutant / LBS1) (Human herpesvirus 8 (Kaposi's sarcoma-associated herpesvirus), UniProt Q76SB0); assay: Electrophoretic mobility shift assay (EMSA), LANA DBD mutant with LBS1 oligonucleotide; format: biochemical, Kaposi's sarcoma-associated herpesvirus (KSHV); settings: compound at 250 μM; LBS1 oligonucleotide; LANA aa 1008–1146 mutant
Procedure: as §4
Equation y = A2 + (A1-A2)/(1 + (x/x0)^p) […]
1.4 Electrophoretic Mobility Shift Assay (EMSA)
The EMSA was carried out with slight modific ations as described previously 2 based on the assay in Hellert et al. (2013). 3 His-tagged oligomerization-deficient LANA DBD (aa1008-1146) mutant protein or LANA DBD (aa934-1162) wild type protein (200 nM final) was incubated with a 5´-Dy682-labeled double stranded DNA probe (IBA Lifesciences) (20 nM final) for 30 minutes at RT in the dark. The reaction buffer consisted of 30 mM Tris HCl pH 7.5, 50 mM KCl, 10 mM MgCl2, 1 mM DTT, 1 mM EDTA, 10% glycerol, 0.25% Tween20, 0.5 mg/mL BSA and 0.05 mg/mL poly(dI-dC). […]
dark. 10 µL of the reaction was run on a pre -run native 5% acrylamide gel for 45 minutes at 100V with tris-borate-EDTA buffer. Images of the gels were acquired and analysed with the Odyssey (Licor) using the Image Studio software.
Fig S2: Gels of EMSA experiments at 250 μM for all compounds (A) and dose-dependent curves for compound 20 using LANA DBD mutant (B) and LANA wildtype (C) as well as LBS1. Values are means […]
Gleichung y = A2 + (A1-A2)/(1 + (x/x0)^p) […]

| SMILES | Kd [6] [µM] | Inhibition (EMSA, LBS1) @250 μM [7] | also measured |
| --- | --- | --- | --- |
| Cc1cc(-c2ccccc2Cl)ncc1-n1cc(-c2ccc(C(=O)O)cc2)nn1 [Compound 14] | 4.2 ± 0.6 | 92% | Papp A→B at 5 h, 10 µM [1]: 14.2 ± 1.8 ×10⁻⁶ cm/s; solubility kinetic at 5 min [2]: > 200 µM; chromatographic logD [3]: 0.67; microsomal CLint at 1 µM ([4]; read-out: MetStab Human Liver S9 Clint): < 5.8 µL/min/mg; half-life at 1 µM ([4]; read-out: MetStab Human Liver S9 t1/2): > 2 h; microsomal CLint at 1 µM ([5]; read-out: MetStab Mouse Liver S9 Clint): < 5.8 µL/min/mg; half-life at 1 µM ([5]; read-out: MetStab Mouse Liver S9 t1/2): > 2 h |
| COc1ccc(COc2ccc(-c3cc(C)c(-n4cc(-c5ccc(C(=O)O)cc5)nn4)cn3)cc2)cc1 [Compound 36] | 26 ± 3.8 | – | – |
| Cc1cc(-c2cccc(C(=O)O)c2)ncc1-n1cc(-c2ccc(C(=O)O)cc2)nn1 [Compound 26] | 12.1 ± 3.7 | n.i. (n.i. = no inhibition for inhibition <10%) | – |
| Cc1cc(-c2ccncc2)ncc1-n1cc(-c2ccc(C(=O)O)cc2)nn1 [Compound 5] | 57.5 ± 6.8 | – | – |
| Cc1cc(-c2cnc3ccccc3c2)ncc1-n1cc(-c2ccc(C(=O)O)cc2)nn1 [Compound 12] | 31 ± 2.5 | – | – |
| CNC(=O)c1ccc(-c2cc(C)c(-n3cc(-c4ccc(C(=O)O)cc4)nn3)cn2)cc1 [Compound 25] | 30.9 ± 3.1 | – | – |
| Cc1cc(-c2cccc(Cl)c2)ncc1-n1cc(-c2ccc(C(=O)O)cc2)nn1 [Compound 15] | 22.1 ± 4.8 | n.i. (n.i. = no inhibition for inhibition <10%) | – |
| COc1ccccc1COc1cccc(-c2cc(C)c(-n3cc(-c4ccc(C(=O)O)cc4)nn3)cn2)c1 [Compound 31] | 30.8 ± 15.9 | – | – |
| COc1cccc(-c2cc(C)c(-n3cc(-c4ccc(C(=O)O)cc4)nn3)cn2)c1 [Compound 18] | 9.6 ± 2.8 | n.i. (n.i. = no inhibition for inhibition <10%) | – |
| Cc1cc(-c2ccccc2)ncc1-n1cc(-c2ccc(C(=O)O)cc2)nn1 [Compound 13] | 7.6 ± 2 | n.i. (n.i. = no inhibition for inhibition <10%) | – |
| Cc1cc(-c2cccc(OCc3ccccc3)c2)ncc1-n1cc(-c2ccc(C(=O)O)cc2)nn1 [Compound 29] | 84.8 ± 5.6 | – | – |
| Cc1cc(-c2ccc(O)cc2)ncc1-n1cc(-c2ccc(C(=O)O)cc2)nn1 [Compound 23] | 30.9 ± 3 | – | – |
| Cc1cc(-c2ccc(O)nc2)ncc1-n1cc(-c2ccc(C(=O)O)cc2)nn1 [Compound 8] | 13.8 ± 2.7 | 42% | – |
| COc1cccc(COc2cccc(-c3cc(C)c(-n4cc(-c5ccc(C(=O)O)cc5)nn4)cn3)c2)c1 [Compound 32] | 31.3 ± 3 | – | – |
| COc1ccc(COc2cccc(-c3cc(C)c(-n4cc(-c5ccc(C(=O)O)cc5)nn4)cn3)c2)cc1 [Compound 34] | 5.3 ± 4 | 31% | – |
| COc1cc(COc2cccc(-c3cc(C)c(-n4cc(-c5ccc(C(=O)O)cc5)nn4)cn3)c2)cc(OC)c1 [Compound 33] | 96.7 ± 9 | – | – |
| Cc1cc(-c2cccc(Oc3ccccc3)c2)ncc1-n1cc(-c2ccc(C(=O)O)cc2)nn1 [Compound 28] | 71.1 ± 9.3 | – | – |
| Cc1cc(-c2cncnc2)ncc1-n1cc(-c2ccc(C(=O)O)cc2)nn1 [Compound 6] | 13.3 ± 2.5 | 74% | – |
| Cc1cc(-c2cccc(O)c2)ncc1-n1cc(-c2ccc(C(=O)O)cc2)nn1 [Compound 22] | 26.4 ± 3.4 | – | – |
| COc1ccccc1-c1cc(C)c(-n2cc(-c3ccc(C(=O)O)cc3)nn2)cn1 [Compound 17] | 18 ± 2.7 | 38% | – |
| CNC(=O)c1cccc(-c2cc(C)c(-n3cc(-c4ccc(C(=O)O)cc4)nn3)cn2)c1 [Compound 24] | 4.3 ± 0.9 | 40% | – |
| COc1ccc(-c2cc(C)c(-n3cc(-c4ccc(C(=O)O)cc4)nn3)cn2)cn1 [Compound 10] | 9.2 ± 2.1 | n.i. (n.i. = no inhibition for inhibition <10%) | – |
| Cc1cc(-c2ccc(Cl)cc2)ncc1-n1cc(-c2ccc(C(=O)O)cc2)nn1 [Compound 16] | 37.7 ± 59.3 | – | – |
| COc1ccc(COc2ccccc2-c2cc(C)c(-n3cc(-c4ccc(C(=O)O)cc4)nn3)cn2)cc1 [Compound 35] | 46.1 ± 5.8 | – | – |
| Cc1cc(-c2cccnc2)ncc1-n1cc(-c2ccc(C(=O)O)cc2)nn1 [Compound 4] | 81.3 ± 10.5 | – | – |
| Cc1cc(-c2cncc(O)c2)ncc1-n1cc(-c2ccc(C(=O)O)cc2)nn1 [Compound 7] | 48.3 ± 11.8 | – | – |
| Cc1cc(-c2cccc(OCc3ccccc3Cl)c2)ncc1-n1cc(-c2ccc(C(=O)O)cc2)nn1 [Compound 30] | 159 ± 74 | – | – |
